Test results: patent US20260207490A1, “Hydroxydiphenylethane compound ointment, use thereof, and method for preparing same” (Cutia Therapeutics (Wuxi) Co., Ltd., priority 2022, published 2026)

Tests used:
[1] = Saturated solubility in medium-chain triglycerides / isopropyl myristate / light liquid paraffin mixtures; format: physicochemical; conditions: for Saturation solubility of 2-isopropyl-5-(2′-phenylethyl)-1,3-benzenediol: room temperature
Text: Experimental variables A, B, and C were set as the content of medium-chain triglycerides (%), isopropyl myristate (%), and light liquid paraffin (%), respectively (for the convenience of experimental design and operation, light liquid paraffin was used to represent all hydrocarbon compounds). According to the maximum safe dosage of excipients (FDA IID database), the variable range was set as follows: 0<A≤20, 0<B≤20. According to the preliminary experimental results (medium-chain triglycerides are more important for the dissolution of API and the stability of the system) and the requirements for the viscosity and skin feel of the ointment, the constraints were set as follows: A>B; A+B≤25%; A+B+C=100%.
According to the variable range and constraint conditions, a total of 20 experimental formulations were designed. After the components were mixed evenly in proportion, an excess of 2-isopropyl-5-(2′-phenylethyl)-1,3-benzenediol was added, stirred overnight at room temperature, centrifuged, the supernatant was filtered and diluted, and the saturated solubility of 2-isopropyl-5-(2′-phenylethyl)-1,3-benzenediol was tested.
The saturated solubility of 2-isopropyl-5-(2′-phenylethyl)-1,3-benzenediol in different proportions of medium-chain triglycerides, isopropyl myristate and light liquid paraffin solution was investigated to verify the accuracy of the prediction equation. The equation can accurately predict the solubility of API in different proportions of excipients. In practical applications, it is acceptable that the API content is within the range of no more than 1.2 times the saturated solubility, that is, 120%×(0.445829×A+0.032300×B−0.000599×C+0.008112×A×B−0.003841×A×C). Preferably, when the content of the active ingredient in the preparation is not higher than 0.445829×A+0.032300×B−0.000599×C+0.008112×A×B−0.003841×A×C, a better solution-type ointment can be prepared. It is further preferred that the content of the active ingredient in the preparation is not higher than 90% of the saturated solubility, that is, the content of the active ingredient in the preparation is not higher than 90%×(0.445829×A+0.032300×B−0.000599×C+0.008112×A×B−0.003841×A×C).

[2] = Saturated solubility in different excipients; format: physicochemical

Saturation solubility of 2-isopropyl-5-(2′-phenylethyl)-1,3-benzenediol ([1]; experimental formulation 1: MCT 5.97%, isopropyl myristate 5.97%, light liquid paraffin 88.06%): 1.09%
Saturation solubility of 2-isopropyl-5-(2′-phenylethyl)-1,3-benzenediol ([1]; experimental formulation 2: MCT 6.63%, isopropyl myristate 6.63%, light liquid paraffin 86.74%): 1.22%
Saturation solubility of 2-isopropyl-5-(2′-phenylethyl)-1,3-benzenediol ([1]; experimental formulation 3: MCT 20.00%, isopropyl myristate 0.00%, light liquid paraffin 80.00%): 2.47%
Saturation solubility of 2-isopropyl-5-(2′-phenylethyl)-1,3-benzenediol ([1]; experimental formulation 4: MCT 2.00%, isopropyl myristate 0.00%, light liquid paraffin 98.00%): 0.11%
Saturation solubility of 2-isopropyl-5-(2′-phenylethyl)-1,3-benzenediol ([1]; experimental formulation 5: MCT 12.50%, isopropyl myristate 12.50%, light liquid paraffin 75.00%): 3.78%
Saturation solubility of 2-isopropyl-5-(2′-phenylethyl)-1,3-benzenediol ([1]; experimental formulation 6: MCT 16.15%, isopropyl myristate 0.00%, light liquid paraffin 83.85%): 2.07%
Saturation solubility of 2-isopropyl-5-(2′-phenylethyl)-1,3-benzenediol ([1]; experimental formulation 7: MCT 20.00%, isopropyl myristate 0.00%, light liquid paraffin 80.00%): 2.91%
Saturation solubility of 2-isopropyl-5-(2′-phenylethyl)-1,3-benzenediol ([1]; experimental formulation 8: MCT 18.79%, isopropyl myristate 6.21%, light liquid paraffin 75.00%): 4.13%
Saturation solubility of 2-isopropyl-5-(2′-phenylethyl)-1,3-benzenediol ([1]; experimental formulation 9: MCT 11.30%, isopropyl myristate 3.90%, light liquid paraffin 84.80%): 1.73%
Saturation solubility of 2-isopropyl-5-(2′-phenylethyl)-1,3-benzenediol ([1]; experimental formulation 10: MCT 11.62%, isopropyl myristate 2.02%, light liquid paraffin 86.36%): 1.55%
Saturation solubility of 2-isopropyl-5-(2′-phenylethyl)-1,3-benzenediol ([1]; experimental formulation 11: MCT 10.84%, isopropyl myristate 0.00%, light liquid paraffin 89.16%): 1.05%
Saturation solubility of 2-isopropyl-5-(2′-phenylethyl)-1,3-benzenediol ([1]; experimental formulation 12: MCT 12.50%, isopropyl myristate 12.50%, light liquid paraffin 75.00%): 3.42%
Saturation solubility of 2-isopropyl-5-(2′-phenylethyl)-1,3-benzenediol ([1]; experimental formulation 13: MCT 9.35%, isopropyl myristate 8.77%, light liquid paraffin 81.88%): 2.20%
Saturation solubility of 2-isopropyl-5-(2′-phenylethyl)-1,3-benzenediol ([1]; experimental formulation 14: MCT 17.87%, isopropyl myristate 7.13%, light liquid paraffin 75.00%): 4.11%
Saturation solubility of 2-isopropyl-5-(2′-phenylethyl)-1,3-benzenediol ([1]; experimental formulation 15: MCT 10.84%, isopropyl myristate 0.00%, light liquid paraffin 89.16%): 1.06%
Saturation solubility of 2-isopropyl-5-(2′-phenylethyl)-1,3-benzenediol ([1]; experimental formulation 16: MCT 15.17%, isopropyl myristate 4.03%, light liquid paraffin 80.80%): 2.65%
Saturation solubility of 2-isopropyl-5-(2′-phenylethyl)-1,3-benzenediol ([1]; experimental formulation 17: MCT 13.29%, isopropyl myristate 8.31%, light liquid paraffin 78.40%): 3.98%
Saturation solubility of 2-isopropyl-5-(2′-phenylethyl)-1,3-benzenediol ([1]; experimental formulation 18: MCT 5.84%, isopropyl myristate 1.16%, light liquid paraffin 93.00%): 0.48%
Saturation solubility of 2-isopropyl-5-(2′-phenylethyl)-1,3-benzenediol ([1]; experimental formulation 19: MCT 2.00%, isopropyl myristate 0.00%, light liquid paraffin 98.00%): 0.09%
Saturation solubility of 2-isopropyl-5-(2′-phenylethyl)-1,3-benzenediol ([1]; experimental formulation 20: MCT 18.79%, isopropyl myristate 6.21%, light liquid paraffin 75.00%): 3.95%
Measured saturated solubility ([1]; validation group 1: MCT 20%, isopropyl myristate 0.85%, light liquid paraffin 79.15%): 3.32%
Measured saturated solubility ([1]; validation group 2: MCT 20%, isopropyl myristate 3.4%, light liquid paraffin 76.6%): 3.85%
Measured saturated solubility ([1]; validation group 3: MCT 13.75%, isopropyl myristate 9.23%, light liquid paraffin 77.02%): 3.52%
Measured saturated solubility ([1]; validation group 4: MCT 11.2%, isopropyl myristate 7.55%, light liquid paraffin 81.25%): 2.56%
Measured saturated solubility ([1]; validation group 5: MCT 8.72%, isopropyl myristate 5.04%, light liquid paraffin 86.24%): 1.58%
Measured saturated solubility ([1]; validation group 6: MCT 3%, isopropyl myristate 3%, light liquid paraffin 94%): 0.401%
Measured saturated solubility ([1]; validation group 7: MCT 2%, isopropyl myristate 2%, light liquid paraffin 96%): 0.203%
saturated solubility ([2]; in 10% glycerol): 0.00007%
saturated solubility ([2]; in 20% ethanol): 0.02%
saturated solubility ([2]; in Span 80): 3%
saturated solubility ([2]; in diethylene glycol monoethyl ether): 52%
saturated solubility ([2]; in isopropyl myristate): 27%
saturated solubility ([2]; in isopropyl palmitate): 23%
saturated solubility ([2]; in light liquid paraffin): 0.01%
saturated solubility ([2]; in medium-chain triglycerides): 27%
saturated solubility ([2]; in polyethylene glycol 400): 30%
saturated solubility ([2]; in polysorbate 80): 17%
saturated solubility ([2]; in propylene glycol): 30%
saturated solubility ([2]; in propylene glycol monolaurate): 30%
saturated solubility ([2]; in water): 0.0008%
SMILES: CC(C)c1c(O)cc(CCc2ccccc2)cc1O [2-isopropyl-5-(2′-phenylethyl)-1,3-benzenediol]
